{
  "source": "patent US20260028390A1",
  "about": "“ALPHA1-ANTITRYPSIN FOR USE IN THE TREATMENT OF DISEASES OR DISORDERS OF THE NERVOUS SYSTEM SUCH AS CHRONIC INFLAMMATORY DEMYELINATING POLYNEUROPATHY” (Ageronix SA, priority 2022, published 2026)",
  "key": {"[1]": {"system": "CMT1A mice B6.Cg-Tg(PMP22)C3Fbas/J", "assay": "Sciatic nerve histology, CMT mice treated with AAT 180 mg/kg/day sc", "type": "in vivo, mouse", "text": "Animals were received at 6 weeks of age and housed under controlled conditions for the duration of the study. The study comprised two groups of 8 transgenic mice (CMT mice) each and one group of 8 age matched wild type (WT) C57B16 mice, serving as positive control. Animals were assigned to the following subcutaneous treatments twice daily at 7:00 AM and 7:00 PM for 2 weeks, starting from 8 weeks and up to 10 weeks of age: • Wild-type (WT, no disease) mice receiving vehicle, 0.9% NaCl (positive control) • CMT1A mice receiving vehicle, 0.9% NaCl (negative control) • CMT1A mice receiving AAT at 90 mg/kg per injection (daily dose 180 mg/kg)\nThe efficacy parameters included: • neuromuscular performance (rotarod latency to fall and grip strength test), • sciatic nerve electrophysiology (CMAP amplitude and NCV) • cytokine (IL-6 and TNFα), as well as NfL analysis • sciatic nerve histology (number of axons and axonal diameter),"}, "[2]": {"system": "C3-PMP22 transgenic mice (CMT1A)", "assay": "Grip strength test, CMT1A mouse study (50 mg/kg twice daily)", "type": "in vivo", "settings": "for Grip strength (Mean ± SEM) / Grip strenght, Mean/animal / Grip strenght, set 1, individual animals / Grip strenght, set 2, individual animals / Grip strenght, set 3, individual animals: CMT1A + AAT", "text": "As a murine model of CMT1A we used C3-PMP22 transgenic mice (B6.Cg-Tg(PMP22)C3Fbas/J, The Jackson Laboratory) which express three copies of a wild-type human peripheral myelin protein 22 (PMP22) gene (Verhamme, Camiel, et al. Journal of Neuropathology & Experimental Neurology 70.5 (2011): 386-398). Mice were housed in macrolon cages with filter hoods, in a continuously air-filtered room, thereby avoiding contamination. During experiments, paired animals were caged at a constant temperature with a day/night cycle of 12/12 hours. Animals were fed (control tap water and nutrition) ad libitum. Animal protocol is approved by the Animal Studies Committee of Languedoc Roussillon. This protocol and the laboratory procedures comply with French legislation, which implements the European Directives (Reference Number: D3417223, APAFIS #23920-2020020320279696 v3). Animal health was followed on a daily basis to ensure that only animals in good health enter the testing procedures and follow up the study.\nAnimals were split in 3 groups (wild-type control (subcutaneous 0.9% NaCl), CMT1A-vehicle (subcutaneous 0.9% NaCl), CMT1A-human alpha-1 antitrypsin (subcutaneous, twice daily, 50 mg/kg per injection)) of 3 mice each (3 weeks old males of 18±2.5 g at the beginning of study) and all went through the following protocol after 7 days of acclimation on site.\nOn the first and last day of treatment, the neuromuscular performance of animals was tested with a rotarod test, grip test and sciatic nerve electrophysiology test. After the last treatment at 8 weeks, these tests were repeated, and animals were sacrificed and the left sciatic nerve was sampled for histological evaluation of the number and size of […].\nGrip strength test measures neuromuscular strength by assessing the animal's grasp of a metal grid. […] At the baseline, the differences of grip strengths between groups were not statistically significant."}, "[3]": {"system": "plasma TMPRSS5", "assay": "Plasma TMPRSS5, CIDP mouse model", "type": "in vivo", "settings": "CIDP + AAT", "method": "C57BL/6 mice were received at 8 weeks of age and housed under controlled conditions for the duration of the study. Three groups of 4 animals each were assigned to the following subcutaneous treatments twice daily at 7:00 AM and 7:00 PM for 2 weeks, from 20 to 35 days after the start of disease induction: • Wild type (WT) mice receiving the vehicle, 0.9% NaCl (positive control) • CIDP mice receiving the vehicle, 0.9% NaCl (negative control) • CIDP mice receiving human AAT (AAT), 50 mg/kg per injection\nOn the day preceding disease induction (Day 1), on the first (Day 20) and on the last (Day 35) treatment day, animals were subjected to blood samplings for the determination of neurofilament light chain (NfL), tumour necrosing factor alpha (TNFα) and TMPRSS5 levels, as described in FIG. 20. In addition, plasma levels of AAT were evaluated on the last treatment day."}, "[4]": {"settings": "CMT1A + AAT 90 mg/kg sc twice daily"}, "[5]": {"settings": "CMT mice, AAT 180 mg/kg daily dose"}, "[6]": {"settings": "after 2 weeks treatment free period"}},
  "note": "Several values for one entry are separate records, joined by “and”; a condition that tells them apart may be missing. Equal entries are not always repeated.",
  "data": [
    {"substance": "alpha1-antitrypsin (AAT) protein", "values": [
      {"measurement": "Sciatic nerve histology, Axonal diameter (Mean ± SD)", "setting": "[1]; [4]", "result": "3.84 ± 0.25", "unit": "μm"},
      {"measurement": "Sciatic nerve histology, Axons/100 μm2 (Mean ± SD)", "setting": "[1]; [4]", "result": "26.30 ± 2.00"},
      {"measurement": "Sciatic nerve histology, g-ratio (Mean ± SD)", "setting": "[1]; [4]", "result": "0.62 ± 0.16"},
      {"measurement": "axonal diameter relative to untreated CMT animals", "setting": "[1]; [5]", "result": "increase"},
      {"measurement": "g-ratio relative to untreated CMT animals", "setting": "[1]; [5]", "result": "decrease"},
      {"measurement": "number of axons in the treated animals", "setting": "[1]; [6]", "result": "significantly larger"},
      {"measurement": "size of the myelin sheath in the treated animals", "setting": "[1]; [6]", "result": "significantly larger"},
      {"measurement": "Grip strength (Mean ± SEM)", "setting": "[2]; 6 weeks old", "result": "5.86 ± 0.57", "unit": "newtons"},
      {"measurement": "Grip strenght, Mean/animal", "setting": "[2]; 6 weeks old (baseline)", "result": "5.10 Newtons and 6.97 Newtons and 5.51 Newtons"},
      {"measurement": "Grip strenght, set 1, individual animals", "setting": "[2]; 6 weeks old (baseline)", "result": "5.84 Newtons and 7.10 Newtons and 5.94 Newtons"},
      {"measurement": "Grip strenght, set 2, individual animals", "setting": "[2]; 6 weeks old (baseline)", "result": "7.62 Newtons and 7.19 Newtons and 3.08 Newtons"},
      {"measurement": "Grip strenght, set 3, individual animals", "setting": "[2]; 6 weeks old (baseline)", "result": "1.82 Newtons and 6.62 Newtons and 7.52 Newtons"},
      {"measurement": "Grip strenght, Mean/animal", "setting": "[2]; 8 weeks old", "result": "5.45 Newtons and 4.86 Newtons and 3.88 Newtons"},
      {"measurement": "Grip strenght, set 1, individual animals", "setting": "[2]; 8 weeks old", "result": "6.55 Newtons and 4.01 Newtons and 2.76 Newtons"},
      {"measurement": "Grip strenght, set 2, individual animals", "setting": "[2]; 8 weeks old", "result": "4.38 Newtons and 6.93 Newtons and 3.67 Newtons"},
      {"measurement": "Grip strenght, set 3, individual animals", "setting": "[2]; 8 weeks old", "result": "5.43 Newtons and 3.63 Newtons and 5.21 Newtons"},
      {"measurement": "Grip strength (Mean ± SEM)", "setting": "[2]; 8 weeks old", "result": "4.73 ± 0.46", "unit": "newtons"},
      {"measurement": "grip strength compared to the control group", "setting": "[2]; CMT1A mice treated with AAT, 8 weeks old", "result": "improvement"},
      {"measurement": "plasma TMPRSS5 concentration compared to the vehicle group", "setting": "[3]", "result": "No statistically significant differences"}
    ]}
  ]
}
